Laboratory results reported in PubChem BioAssay (NCI).
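A five-concentration, 48-hour dose response in 96-well plates underlies each endpoint, interpolated linearly between surrounding concentrations. TGI: concentration producing complete growth inhibition.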

Key:
Experiment in all cases: inhibition of tumour cell growth, NCI panel, 48 h
[1] = test system: SN12C renal
[2] = test system: UACC-62 melanoma
[3] = test system: A549 NSCLC
[4] = test system: CCRF-CEM leukemia
[5] = test system: U251 CNS
[6] = test system: SK-MEL-2 melanoma
[7] = test system: NCI-H226 lung
[8] = test system: A498 renal
[9] = test system: SNB-19 CNS
[10] = test system: BT-549 breast

| SMILES | TGI [1] | TGI [2] | TGI [3] | TGI [4] | TGI [5] | TGI [6] | TGI [7] | TGI [8] | TGI [9] | TGI [10] |
| --- | --- | --- | --- | --- | --- | --- | --- | --- | --- | --- |
| CCCCC1=C(C(=O)N2CCOCC2)C2(OCCO2)C1=O | 32.7 µM | 94.8 µM | 87.7 µM | > 100 µM | 88.3 µM | 71.7 µM | 20.5 µM | 62.1 µM | 43.2 µM | 78.8 µM |
| CC(C)c1cccc(C(C)C)c1NC(=O)/C(CC(=O)CC(c1ccccc1)c1c(O)c2ccccc2oc1=O)=N/O (stereo not drawn) | > 100 µM | > 100 µM | > 100 µM | > 100 µM | > 100 µM | > 100 µM | > 100 µM | > 100 µM | > 100 µM | > 100 µM |
| COc1cc(C(=O)Oc2ccc3c(c2)OCO3)cc(OC)c1OC | > 100 µM | > 100 µM | > 100 µM |  | > 100 µM | > 100 µM | > 100 µM | > 100 µM | > 100 µM | > 100 µM |
| CC1(C)OCC2OC3([C@@H]4OC(C)(C)O[C@H]4CO)OC(C)(C)OC3C2O1 (stereo partly drawn) | > 100 µM | > 100 µM | > 100 µM | > 100 µM | > 100 µM | > 100 µM | > 100 µM | > 100 µM | > 100 µM | > 100 µM |
| Nc1nc(Cl)cc(NCC2(O)CC2)n1 | > 100 µM | > 100 µM | > 100 µM | > 100 µM | > 100 µM | > 100 µM | > 100 µM | > 100 µM | > 100 µM | > 100 µM |
| C/C=C(/C)C(=O)OC1CC(C)[C@H]2CC(=O)C(C)=C2CC1C(C)(C)OC(C)=O (stereo partly drawn) | > 100 µM | 48.6 µM | > 100 µM | 65.8 µM | > 100 µM | 27 µM | > 100 µM | 41.1 µM | > 100 µM | 85.4 µM |
| O=C(O)c1cccc2cccc(-c3cccc4cccc(C(=O)O)c34)c12 | > 100 µM | > 100 µM | > 100 µM | > 100 µM | > 100 µM | > 100 µM | > 100 µM | > 100 µM | > 100 µM | > 100 µM |
| CC1CCC2(NC1)OC1CC3C4CC=C5CC(OC6OC(CO)C(OC7OC(C)C(O)C(O)C7O)C(O)C6OC6OC(C)C(O)C(O)C6O)CCC5(C)C4CCC3(C)C1C2C (stereo not drawn) | 4.83 µM | 7.71 µM | 9.59 µM | > 55.7 µM | 9.37 µM | 9.07 µM | 7.97 µM | 11.8 µM | 28.3 µM | 30.3 µM |
| CC(C)C(=O)C(C)(C)CCc1ccccn1 | > 100 µM | > 100 µM | > 100 µM | > 100 µM | > 100 µM | > 100 µM | > 100 µM | > 100 µM | > 100 µM | > 100 µM |
| Cc1cc(S(=O)(=O)Nc2n[nH]c(-c3ccccn3)n2)c(S)cc1Cl | > 100 µM | 34.8 µM | 41.9 µM |  | 67.3 µM | 63.9 µM | 30.5 µM | 30.5 µM | 60.6 µM | 79.6 µM |
